We go through eleven molecules from patent publication US6894061B2, “Substituted dihydrophenanthridinesulfonamides” (Wyeth, priority 2002, dated 2005).

One data set has as its system ER/NF-κB. The data set can be described thus: ER/NF-κB luciferase reporter in Ad5-wt-ERα infected HAECT-1 cells. The data set is classed as cell-based, human. The note with it: Homo sapiens, HAECT1, IL-1β; for Emax: read-out: ER/NFκB Efficacy (%)*; for IC50: read-out: ER/NFκB IC50. The method, then:
(§1) After four hours, cells were washed with EBM-BSA and incubated overnight in the same medium. Following overnight incubation, cells were washed with EBM-BSA and infected for 2 hours with 6 mL of a 1:10 dilution of Ad5-3x(NFκB).Luc virus (Adenovirus luciferase expression vector driven by 3 repeats of the MHC NFκb site 5′ to the thymidine kinase promoter) in EBM-BSA. After two hours, cells were washed and incubated at 34° C. for 1 hour. […] Control (no ER infection) cells were processed as above without Ad5-wt-hERα virus infection.
(§2) ERα infected HAECT-1 cells or control cells were thawed, diluted 42× in warm EBM-BSA, plated into 96-well plates at 0.1 mL/well and incubated for 4 hours at 34° C. Test compounds were added to the cells as 2× stocks in EBM-BSA containing 2 ng/mL IL-1β (R&D Systems) and the 96-well plates were returned to the incubator (34° C.). After 15-20 hours, 100 μL aliquots of media were removed from the cells and assayed for IL-6 content using a BioSource human IL-6 ELISA Kit. Cells were subsequently washed with 300 μL of Dulbecco's phosphate buffered saline and lysed in 50 μL of Cell Culture Lysis Reagent (Promega). Luciferase was determined on a Wallac Victor^2 Luminometer (Gaithersburg, Md.) using 10 μL of lysate and mixing with 100 μL of Promega Luciferase Assay reagent. Creatine kinase was determined from the rate of increase in A340 following addition of 100 μL of CK assay reagent (Sigma, cat. No 47-10) to the remainder of the cell lysate.
(§3) For IC50 and EC50 calculations, mean IL-6, luciferase or CK values versus log10 of the compound concentration were fitted to a four parameter logistic equation. The IC50/EC50 value, ‘Hill slope’, upper and lower limits of the curve were iteratively estimated.

In the next data set the test system is creatine kinase. The data set can be described thus: Creatine kinase (CK) test procedure in Ad5-wt-ERα infected HAECT-1 cells. The data set is classed as cell-based, human. The note with it: Homo sapiens, HAECT1, Ad5-wt-ERα infected HAECT-1 cells; for EC50: read-out: Creatin Kinase EC50; for Emax / Emax at 10 µM: read-out: Creatin Kinase Efficacy (%). The method, then:
as §1, §2, §3

Regarding `CC1c2cc(F)ccc2-c2ccccc2N1S(=O)(=O)c1ccc(O)cc1` (stereo not shown) [Example 32, 4-[(8-Fluoro-6-methylphenanthridin-5(6H)-yl)sulfonyl]phenol], the melting point was determined as 188 °C. Further, in the data set with ER/NF-κB, the Emax is 96% and the IC50 was 96 nM. Further, in the data set on creatine kinase, the EC50 came to 302 nM and the Emax was found to be 26%.
Regarding `Cc1cc(S(=O)(=O)N2c3ccccc3-c3ccc(F)cc3C2C)ccc1O` (stereo not shown) [Example 35, 4-[(8-Fluoro-6-methylphenanthridin-5(6H)-yl)sulfonyl]-2-methylphenol], the melting point was 196 °C. Also, in the data set with ER/NF-κB, the Emax came out at 94% and the IC50 was 707 nM. Also, the Emax at 10 µM with creatine kinase is less than 35%.
The matching figures for `CC1c2ccc(O)cc2-c2ccccc2N1S(=O)(=O)c1ccc(O)cc1` (stereo not shown) [Example 36, 5-[(4-Hydroxyphenyl)sulfonyl]-6-methyl-5,6-dihydrophenanthridin-9-ol]: 212 °C, 60%, 690 nM and less than 35%.
For the molecule `Cc1cc(S(=O)(=O)N2c3ccccc3-c3cccc(O)c3C2C)ccc1O` (stereo not shown) [Example 38, 5-[(4-Hydroxy-3-methylphenyl)sulfonyl]-6-methyl-5,6-dihydrophenanthridin-7-ol], the melting point was determined as 258 °C. Moreover, the IC50 in the data set on ER/NF-κB is more than 10000 nM. For the same molecule, in the data set on creatine kinase, the Emax at 10 µM was less than 35%.
Consider `CCC1c2cc(F)ccc2-c2ccccc2N1S(=O)(=O)c1ccc(O)cc1` (stereo not shown) [Example 40, 4-[(6-Ethyl-8-fluorophenanthridin-5(6H)-yl)sulfonyl]phenol], for which the melting point came to 151 °C. Besides, in the data set with ER/NF-κB, the Emax is 99% and the IC50 is 27 nM. For the same molecule, the Emax at 10 µM with creatine kinase is less than 35%.
`CCC1c2cc(F)ccc2-c2ccccc2N1S(=O)(=O)c1ccc(O)c(C)c1` (stereo not shown) [Example 41, 4-[(6-Ethyl-8-fluorophenanthridin-5(6H)-yl)sulfonyl]-2-methylphenol] displayed a melting point of 181 °C. In the data set with ER/NF-κB, the Emax came out at 75% and the IC50 was 815 nM. Also, in the data set with creatine kinase, the EC50 worked out at 429 nM and the Emax was found to be 24%.
In the case of `CCC1c2c(C)cccc2-c2ccccc2N1S(=O)(=O)c1ccc(O)cc1` (stereo not shown) [Example 42, 4-[(6-ethyl-7-methylphenanthridin-5(6H)-yl)sulfonyl]phenol], the melting point was 167 to 169 °C. In the data set with ER/NF-κB, the Emax turned out to be 99% and the IC50 stood at 83 nM. Moreover, the Emax at 10 µM in the data set on creatine kinase was less than 35%.
Regarding `CCC1c2ccc(C)cc2-c2ccccc2N1S(=O)(=O)c1ccc(O)cc1` (stereo not shown) [Example 43, 4-[(6-Ethyl-9-methylphenanthridin-5(6H)-yl)sulfonyl]phenol], the melting point fell in the range of 167 to 170 °C. Besides, the IC50 in the data set with ER/NF-κB was more than 10000 nM. Further, the Emax at 10 µM in the data set on creatine kinase was less than 35%.
Take `CCC1c2cc(F)ccc2-c2cc(Br)ccc2N1S(=O)(=O)c1ccc(O)cc1` (stereo not shown) [Example 44, 4-[(2-Bromo-6-ethyl-8-fluorophenanthridin-5(6H)-yl)sulfonyl]phenol]: the melting point lay within 220 to 221 °C. Also, in the data set on ER/NF-κB, the Emax turned out to be 94% and the IC50 is 85 nM. In addition, the Emax at 10 µM in the data set with creatine kinase was less than 35%.
As to `CC1c2cc(F)ccc2-c2cc(Br)ccc2N1S(=O)(=O)c1ccc(O)cc1` (stereo not shown) [Example 45, 4-[(2-Bromo-8-fluoro-6-methylphenanthridin-5(6H)-yl)sulfonyl]phenol], the melting point lay in the range of 237 to 239 °C. In addition, in the data set on ER/NF-κB, the Emax came out at 92% and the IC50 worked out at 357 nM. The Emax at 10 µM in the data set with creatine kinase is less than 35%.
The molecule `CCC1c2cc(F)ccc2-c2ccccc2N1S(=O)(=O)c1ccc(O)c(Cl)c1` (stereo not shown) [Example 46, 2-Chloro-4-[(6-ethyl-8-fluorophenanthridin-5(6H)-yl)sulfonyl]phenol] displayed a melting point of 174 to 177 °C. The IC50 with ER/NF-κB was more than 10000 nM. Moreover, in the data set with creatine kinase, the Emax at 10 µM was less than 35%.
